Test results: ChEMBL document CHEMBL6092180 (Eur J Med Chem, 2024)
Values after ≈ are worked out from the molar mass of the structure shown.

Tests used:
Assay type in all cases: functional
Candida albicans [1] = assay: Antifungal activity against Candida albicans GIM 2.194 assessed as inhibition of fungal growth by CLSI M27-A3 guidelines based method
Candida parapsilosis = assay: Antifungal activity against Candida parapsilosis GIM 2.190 assessed as inhibition of fungal growth by CLSI M27-A3 guidelines based method; conditions: Lodderomyces parapsilosis
Nakaseomyces glabratus = assay: Antifungal activity against Candida glabrata assessed as inhibition of fungal growth by CLSI M27-A3 guidelines based method
Candida albicans [2] = assay: Antifungal activity against Candida albicans SC5314 assessed as inhibition of fungal growth by CLSI M27-A3 guidelines based method
Candida tropicalis = assay: Antifungal activity against Candida tropicalis GIM 2.183 assessed as inhibition of fungal growth by CLSI M27-A3 guidelines based method
Pichia kudriavzevii = assay: Antifungal activity against Candida krusei GIM 2.1 assessed as inhibition of fungal growth by CLSI M27-A3 guidelines based method
Cryptococcus neoformans = assay: Antifungal activity against Cryptococcus neoformans CGMCC 2.3161 assessed as inhibition of fungal growth by CLSI M27-A3 guidelines based method

CN(Cc1ccc(C#Cc2ccc([N+](=O)[O-])cc2F)cc1)CC(O)(Cn1cncn1)c1ccc(F)cc1F (stereo unspecified)
MIC80 (Candida albicans [1]): 0.006 µg/mL (≈ 0.0115 µM)
MIC80 (Candida parapsilosis): 0.006 µg/mL (≈ 0.0115 µM)
MIC80 (Nakaseomyces glabratus): 0.03 µg/mL (≈ 0.0575 µM)
MIC80 (Candida albicans [2]): 0.006 µg/mL (≈ 0.0115 µM)
MIC80 (Candida tropicalis): 0.006 µg/mL (≈ 0.0115 µM)
MIC80 (Pichia kudriavzevii): 0.05 µg/mL (≈ 0.0959 µM)
MIC80 (Cryptococcus neoformans): 0.025 µg/mL (≈ 0.0479 µM)

CN(Cc1ccc(C#Cc2cccc(I)c2)cc1)CC(O)(Cn1cncn1)c1ccc(F)cc1F (stereo unspecified)
MIC80 (Candida albicans [1]): 0.05 µg/mL (≈ 0.0856 µM)
MIC80 (Candida parapsilosis): 0.025 µg/mL (≈ 0.0428 µM)
MIC80 (Nakaseomyces glabratus): 3.2 µg/mL (≈ 5.48 µM)
MIC80 (Candida albicans [2]): 0.05 µg/mL (≈ 0.0856 µM)
MIC80 (Candida tropicalis): 0.025 µg/mL (≈ 0.0428 µM)
MIC80 (Pichia kudriavzevii): 3.2 µg/mL (≈ 5.48 µM)
MIC80 (Cryptococcus neoformans): 0.025 µg/mL (≈ 0.0428 µM)

CN(Cc1ccc(C#Cc2ccc(F)c(F)c2)cc1)CC(O)(Cn1cncn1)c1ccc(F)cc1F (stereo unspecified)
MIC80 (Candida albicans [1]): 0.006 µg/mL (≈ 0.0121 µM)
MIC80 (Candida parapsilosis): 0.006 µg/mL (≈ 0.0121 µM)
MIC80 (Nakaseomyces glabratus): 0.03 µg/mL (≈ 0.0607 µM)
MIC80 (Candida albicans [2]): 0.006 µg/mL (≈ 0.0121 µM)
MIC80 (Candida tropicalis): 0.006 µg/mL (≈ 0.0121 µM)
MIC80 (Pichia kudriavzevii): 0.01 µg/mL (≈ 0.0202 µM)
MIC80 (Cryptococcus neoformans): 0.013 µg/mL (≈ 0.0263 µM)

CN(Cc1ccc(C#Cc2ccc(I)cc2)cc1)CC(O)(Cn1cncn1)c1ccc(F)cc1F (stereo unspecified)
MIC80 (Candida albicans [1]): 0.006 µg/mL (≈ 0.0103 µM)
MIC80 (Candida parapsilosis): 0.006 µg/mL (≈ 0.0103 µM)
MIC80 (Nakaseomyces glabratus): 0.01 µg/mL (≈ 0.0171 µM)
MIC80 (Candida albicans [2]): 0.006 µg/mL (≈ 0.0103 µM)
MIC80 (Candida tropicalis): 0.013 µg/mL (≈ 0.0222 µM)
MIC80 (Pichia kudriavzevii): 0.03 µg/mL (≈ 0.0513 µM)
MIC80 (Cryptococcus neoformans): 0.013 µg/mL (≈ 0.0222 µM)

CN(Cc1ccc(C#Cc2ccc(Cl)cc2F)cc1)CC(O)(Cn1cncn1)c1ccc(F)cc1F (stereo unspecified)
MIC80 (Candida albicans [1]): 0.006 µg/mL (≈ 0.0117 µM)
MIC80 (Candida parapsilosis): 0.006 µg/mL (≈ 0.0117 µM)
MIC80 (Nakaseomyces glabratus): 0.03 µg/mL (≈ 0.0587 µM)
MIC80 (Candida albicans [2]): 0.006 µg/mL (≈ 0.0117 µM)
MIC80 (Candida tropicalis): 0.006 µg/mL (≈ 0.0117 µM)
MIC80 (Pichia kudriavzevii): 0.01 µg/mL (≈ 0.0196 µM)
MIC80 (Cryptococcus neoformans): 0.025 µg/mL (≈ 0.0489 µM)

CCOC(=O)c1ccc(C#Cc2ccc(CN(C)CC(O)(Cn3cncn3)c3ccc(F)cc3F)cc2)cc1 (stereo unspecified)
MIC80 (Candida albicans [1]): 0.013 µg/mL (≈ 0.0245 µM)
MIC80 (Candida parapsilosis): 0.006 µg/mL (≈ 0.0113 µM)
MIC80 (Nakaseomyces glabratus): 0.1 µg/mL (≈ 0.188 µM)
MIC80 (Candida albicans [2]): 0.013 µg/mL (≈ 0.0245 µM)
MIC80 (Candida tropicalis): 0.013 µg/mL (≈ 0.0245 µM)
MIC80 (Pichia kudriavzevii): 0.2 µg/mL (≈ 0.377 µM)
MIC80 (Cryptococcus neoformans): 0.025 µg/mL (≈ 0.0471 µM)

CN(Cc1ccc(C#Cc2ncccn2)cc1)CC(O)(Cn1cncn1)c1ccc(F)cc1F (stereo unspecified)
MIC80 (Candida albicans [1]): 0.05 µg/mL (≈ 0.109 µM)
MIC80 (Candida parapsilosis): 0.025 µg/mL (≈ 0.0543 µM)
MIC80 (Nakaseomyces glabratus): 3.2 µg/mL (≈ 6.95 µM)
MIC80 (Candida albicans [2]): 0.025 µg/mL (≈ 0.0543 µM)
MIC80 (Candida tropicalis): 0.025 µg/mL (≈ 0.0543 µM)
MIC80 (Pichia kudriavzevii): 1.6 µg/mL (≈ 3.47 µM)
MIC80 (Cryptococcus neoformans): 0.8 µg/mL (≈ 1.74 µM)

CN(Cc1ccc(C#Cc2ccc(F)cc2)cc1)CC(O)(Cn1cncn1)c1ccc(F)cc1F (stereo unspecified)
MIC80 (Candida albicans [1]): 0.006 µg/mL (≈ 0.0126 µM)
MIC80 (Candida parapsilosis): 0.006 µg/mL (≈ 0.0126 µM)
MIC80 (Nakaseomyces glabratus): 0.03 µg/mL (≈ 0.063 µM)
MIC80 (Candida albicans [2]): 0.006 µg/mL (≈ 0.0126 µM)
MIC80 (Candida tropicalis): 0.013 µg/mL (≈ 0.0273 µM)
MIC80 (Pichia kudriavzevii): 0.05 µg/mL (≈ 0.105 µM)
MIC80 (Cryptococcus neoformans): 0.013 µg/mL (≈ 0.0273 µM)

CN(Cc1ccc(C#Cc2ccc([N+](=O)[O-])cc2)cc1)CC(O)(Cn1cncn1)c1ccc(F)cc1F (stereo unspecified)
MIC80 (Candida albicans [1]): 0.006 µg/mL (≈ 0.0119 µM)
MIC80 (Candida parapsilosis): 0.006 µg/mL (≈ 0.0119 µM)
MIC80 (Nakaseomyces glabratus): 0.03 µg/mL (≈ 0.0596 µM)
MIC80 (Candida albicans [2]): 0.006 µg/mL (≈ 0.0119 µM)
MIC80 (Candida tropicalis): 0.006 µg/mL (≈ 0.0119 µM)
MIC80 (Pichia kudriavzevii): 0.03 µg/mL (≈ 0.0596 µM)
MIC80 (Cryptococcus neoformans): 0.013 µg/mL (≈ 0.0258 µM)

C[C@@H](N(C)Cc1ccc(C#Cc2ccc(OC(F)(F)F)cc2)cc1)[C@](O)(Cn1cncn1)c1ccc(F)cc1F
MIC80 (Candida albicans [1]): 0.05 µg/mL (≈ 0.0898 µM)
MIC80 (Candida parapsilosis): 0.013 µg/mL (≈ 0.0234 µM)
MIC80 (Nakaseomyces glabratus): 0.03 µg/mL (≈ 0.0539 µM)
MIC80 (Candida albicans [2]): 0.05 µg/mL (≈ 0.0898 µM)
MIC80 (Candida tropicalis): 0.013 µg/mL (≈ 0.0234 µM)
MIC80 (Pichia kudriavzevii): 0.8 µg/mL (≈ 1.44 µM)
MIC80 (Cryptococcus neoformans): 0.05 µg/mL (≈ 0.0898 µM)

CN(Cc1ccc(C#Cc2cccnc2)cc1)CC(O)(Cn1cncn1)c1ccc(F)cc1F (stereo unspecified)
MIC80 (Candida albicans [1]): 0.025 µg/mL (≈ 0.0544 µM)
MIC80 (Candida parapsilosis): 0.05 µg/mL (≈ 0.109 µM)
MIC80 (Nakaseomyces glabratus): 0.8 µg/mL (≈ 1.74 µM)
MIC80 (Candida albicans [2]): 0.013 µg/mL (≈ 0.0283 µM)
MIC80 (Candida tropicalis): 0.013 µg/mL (≈ 0.0283 µM)
MIC80 (Pichia kudriavzevii): 0.2 µg/mL (≈ 0.435 µM)
MIC80 (Cryptococcus neoformans): 0.05 µg/mL (≈ 0.109 µM)

CN(Cc1ccc(C#Cc2ccc(N)cc2)cc1)CC(O)(Cn1cncn1)c1ccc(F)cc1F (stereo unspecified)
MIC80 (Candida albicans [1]): 0.05 µg/mL (≈ 0.106 µM)
MIC80 (Candida parapsilosis): 0.05 µg/mL (≈ 0.106 µM)
MIC80 (Nakaseomyces glabratus): 3.2 µg/mL (≈ 6.76 µM)
MIC80 (Candida albicans [2]): 0.2 µg/mL (≈ 0.422 µM)
MIC80 (Candida tropicalis): 0.2 µg/mL (≈ 0.422 µM)
MIC80 (Pichia kudriavzevii): 0.8 µg/mL (≈ 1.69 µM)
MIC80 (Cryptococcus neoformans): 0.4 µg/mL (≈ 0.845 µM)

CN(Cc1ccc(C#Cc2ccc(C(F)(F)F)cc2)cc1)CC(O)(Cn1cncn1)c1ccc(F)cc1F (stereo unspecified)
MIC80 (Candida albicans [1]): 0.025 µg/mL (≈ 0.0475 µM)
MIC80 (Candida parapsilosis): 0.1 µg/mL (≈ 0.19 µM)
MIC80 (Nakaseomyces glabratus): 0.2 µg/mL (≈ 0.38 µM)
MIC80 (Candida albicans [2]): 0.1 µg/mL (≈ 0.19 µM)
MIC80 (Candida tropicalis): 0.05 µg/mL (≈ 0.095 µM)
MIC80 (Pichia kudriavzevii): 0.2 µg/mL (≈ 0.38 µM)
MIC80 (Cryptococcus neoformans): 0.05 µg/mL (≈ 0.095 µM)

CCc1ccc(C#Cc2ccc(CN(C)CC(O)(Cn3cncn3)c3ccc(F)cc3F)cc2)cc1 (stereo unspecified)
MIC80 (Candida albicans [1]): 0.013 µg/mL (≈ 0.0267 µM)
MIC80 (Candida parapsilosis): 0.013 µg/mL (≈ 0.0267 µM)
MIC80 (Nakaseomyces glabratus): 0.1 µg/mL (≈ 0.206 µM)
MIC80 (Candida albicans [2]): 0.013 µg/mL (≈ 0.0267 µM)
MIC80 (Candida tropicalis): 0.013 µg/mL (≈ 0.0267 µM)
MIC80 (Pichia kudriavzevii): 0.05 µg/mL (≈ 0.103 µM)
MIC80 (Cryptococcus neoformans): 0.025 µg/mL (≈ 0.0514 µM)

CN(Cc1ccc(C#Cc2ccncc2)cc1)CC(O)(Cn1cncn1)c1ccc(F)cc1F (stereo unspecified)
MIC80 (Candida albicans [1]): 0.006 µg/mL (≈ 0.0131 µM)
MIC80 (Candida parapsilosis): 0.013 µg/mL (≈ 0.0283 µM)
MIC80 (Nakaseomyces glabratus): 0.4 µg/mL (≈ 0.871 µM)
MIC80 (Candida albicans [2]): 0.013 µg/mL (≈ 0.0283 µM)
MIC80 (Candida tropicalis): 0.013 µg/mL (≈ 0.0283 µM)
MIC80 (Pichia kudriavzevii): 0.2 µg/mL (≈ 0.435 µM)
MIC80 (Cryptococcus neoformans): 0.2 µg/mL (≈ 0.435 µM)

CN(Cc1ccc(C#Cc2ccc(C#N)cc2)cc1)CC(O)(Cn1cncn1)c1ccc(F)cc1F (stereo unspecified)
MIC80 (Candida albicans [1]): 0.006 µg/mL (≈ 0.0124 µM)
MIC80 (Candida parapsilosis): 0.006 µg/mL (≈ 0.0124 µM)
MIC80 (Nakaseomyces glabratus): 0.1 µg/mL (≈ 0.207 µM)
MIC80 (Candida albicans [2]): 0.013 µg/mL (≈ 0.0269 µM)
MIC80 (Candida tropicalis): 0.013 µg/mL (≈ 0.0269 µM)
MIC80 (Pichia kudriavzevii): 0.1 µg/mL (≈ 0.207 µM)
MIC80 (Cryptococcus neoformans): 0.05 µg/mL (≈ 0.103 µM)

C[C@@H](N(C)Cc1ccc(C#Cc2ccc(C(F)(F)F)cc2)cc1)[C@](O)(Cn1cncn1)c1ccc(F)cc1F
MIC80 (Candida albicans [1]): 0.05 µg/mL (≈ 0.0925 µM)
MIC80 (Candida parapsilosis): 0.013 µg/mL (≈ 0.0241 µM)
MIC80 (Nakaseomyces glabratus): 0.05 µg/mL (≈ 0.0925 µM)
MIC80 (Candida albicans [2]): 0.025 µg/mL (≈ 0.0463 µM)
MIC80 (Candida tropicalis): 0.013 µg/mL (≈ 0.0241 µM)
MIC80 (Pichia kudriavzevii): 0.1 µg/mL (≈ 0.185 µM)
MIC80 (Cryptococcus neoformans): 0.05 µg/mL (≈ 0.0925 µM)

CN(Cc1ccc(C#Cc2ccc(O)cc2)cc1)CC(O)(Cn1cncn1)c1ccc(F)cc1F (stereo unspecified)
MIC80 (Candida albicans [1]): 0.025 µg/mL (≈ 0.0527 µM)
MIC80 (Candida parapsilosis): 0.025 µg/mL (≈ 0.0527 µM)
MIC80 (Nakaseomyces glabratus): 3.2 µg/mL (≈ 6.74 µM)
MIC80 (Candida albicans [2]): 0.013 µg/mL (≈ 0.0274 µM)
MIC80 (Candida tropicalis): 0.025 µg/mL (≈ 0.0527 µM)
MIC80 (Pichia kudriavzevii): 3.2 µg/mL (≈ 6.74 µM)
MIC80 (Cryptococcus neoformans): 0.2 µg/mL (≈ 0.421 µM)
